# Patent US9724352B2, “Pyrrolo[2,1-F[1,2,4]triazine compounds, preparation methods and applications thereof” (Shanghai Institute of Materia Medica, Chinese Academy of …, priority 2012, dated 2017)
# Columns and labels:
# Assay in all cases: Proliferation of human esophagus cancer cells
# Type in all cases: cell-based
# [1] = tested on: KYSE510
# Source text: (§1) Compounds BYL719 (shown below), CYH33 (compound I-33) and I-27 were selected to test their activity on the proliferation of 11 species of human esophagus cancer cells.
# (§2) The results reported in FIG. 3 were the average GI50 value and SD value of three experiments. The results were arranged according to the GI50 value of CYH33.
# [2] = tested on: KYSE410
# Source text: as §1, §2
# [3] = tested on: KYSE70
# Source text: as §1, §2
# [4] = tested on: KYSE30
# Source text: as §1, §2
# [5] = tested on: KYSE450
# Source text: as §1, §2
# [6] = tested on: KYSE180
# Source text: as §1, §2
# [7] = tested on: KYSE2
# Source text: as §1, §2
# [8] = tested on: COLO680N; conditions: COLO-680N
# Source text: as §1, §2
structure (smiles),measurement,setting,value
"COC(=O)Nc1cc(C(F)(F)F)c(-c2nc(N3CCOCC3)c3cc(CN4CCN(S(C)(=O)=O)CC4)cn3n2)cn1 [Compound I-33, Methyl (5-(6-((4-(methylsulfonyl)piperazin-1-yl)methyl)-4-morpholinopyrrolo[2,1-f][1,2,4]triazin-2-yl)-4-(trifluoromethyl)pyridin-2-yl)carbamate]",GI50,"[1]; KYSE-510, KYSE510, 1st experiment",55 nM
same,GI50,"[1]; KYSE-510, KYSE510, 2nd experiment",6 nM
same,GI50,"[1]; KYSE-510, KYSE510, 3rd experiment",38 nM
same,GI50,"[1]; KYSE-510, KYSE510, mean of three experiments",33 nM
same,GI50,"[2]; KYSE-410, KYSE410, 1st experiment",146 nM
same,GI50,"[2]; KYSE-410, KYSE410, 2nd experiment",50 nM
same,GI50,"[2]; KYSE-410, KYSE410, 3rd experiment",88 nM
same,GI50,"[2]; KYSE-410, KYSE410, mean of three experiments",95 nM
same,GI50,"[3]; KYSE-70, KYSE70, 1st experiment",33 nM
same,GI50,"[3]; KYSE-70, KYSE70, 2nd experiment",27 nM
same,GI50,"[3]; KYSE-70, KYSE70, 3rd experiment",29 nM
same,GI50,"[3]; KYSE-70, KYSE70, mean of three experiments",30 nM
same,GI50,"[4]; KYSE-30, KYSE30, 1st experiment",2640 nM
same,GI50,"[4]; KYSE-30, KYSE30, 2nd experiment",566 nM
same,GI50,"[4]; KYSE-30, KYSE30, 3rd experiment",531 nM
same,GI50,"[4]; KYSE-30, KYSE30, mean of three experiments",1250 nM
same,GI50,"[5]; KYSE-450, KYSE450, 1st experiment",1380 nM
same,GI50,"[5]; KYSE-450, KYSE450, 2nd experiment",803 nM
same,GI50,"[5]; KYSE-450, KYSE450, 3rd experiment",938 nM
same,GI50,"[5]; KYSE-450, KYSE450, mean of three experiments",1040 nM
same,GI50,"[6]; KYSE-180, KYSE180, 1st experiment",1 nM
same,GI50,"[6]; KYSE-180, KYSE180, 2nd experiment",11 nM
same,GI50,"[6]; KYSE-180, KYSE180, 3rd experiment",16 nM
same,GI50,"[6]; KYSE-180, KYSE180, mean of three experiments",9 nM
same,GI50,"[7]; KYSE2, 1st experiment",24 nM
same,GI50,"[7]; KYSE2, 2nd experiment",28 nM
same,GI50,"[7]; KYSE2, 3rd experiment",97 nM
same,GI50,"[7]; KYSE2, mean of three experiments",50 nM
same,GI50,[8]; 1st experiment,743 nM
same,GI50,[8]; 2nd experiment,530 nM
same,GI50,[8]; 3rd experiment,701 nM
same,GI50,[8]; mean of three experiments,658 nM
